{"source": "patent US20020025943A1", "about": "“Nucleoside analog compositions and uses thereof” (priority 1997, published 2002)", "key": {"HIV in human T4 cells": {"test_system": "HIV in human T4 cells", "experiment": "Anti-HIV experiments performed at the Southern Research Institute (SRI)", "type": "cell-based", "details": "for Fold Increase in Potency: SRI, Control/Expt, relative to the parent drug (AZT or ddC)", "source_text": "The results of the experiments performed at SRI are shown in Table 2; the results were expressed in terms of inhibitory concentration\nThese in vitro data in human cells establish that conjugating ddC drugs to DHA achieves higher activity (between >5400 fold to 55 to 13 fold) against HIV in human T4 cells. In particular, conjugation of DHA to ddC drugs at the pyrimidine ring of ddC rather than the pentose ring is preferred based upon the unexpected results of the foregoing assays."}, "HIV-1 (RF strain)": {"test_system": "HIV-1 (RF strain)", "experiment": "NCI AIDS antiviral screen: inhibition of HIV-1 cytopathicity in T4 lymphocytes (CEM line), XTT viability", "type": "cell-based", "details": "for EC50: NCI screen, mean value", "method": "Three DHA-ddC (compounds 8, 9, and 10 above) and one DHA-AZT conjugate (the compound described above) were sent to the National Cancer Institute's AIDS antiviral screen to test their anti-HIV activity in vitro. The compounds were provided as solutions in ethanol. The vials containing the conjugates were sealed under argon to prevent oxygen from possibly degrading the conjugates. Instructions were provided to store the vials containing the conjugates at 4° C. and to open the vials immediately before use.\nThe primary screen used by the NCI for anti-HIV activity utilizes the cytopathicity of HIV-1 for human T4 lymphocytes and the inhibition of such killing by drugs that inhibit viral cytotoxicity. The experimental protocols are described by Weislow et al., (J. Natl. Cancer Inst. 81:577-586, 1989) and Bader (, whose contents are incorporated herein by reference. Briefly, the compounds are diluted first in DMSO or other appropriate solvent, then diluted 1:100 in cell culture medium before preparing serial half log10 dilutions. T4 lymphocytes (CEM line) are added, and after a brief interval HIV-1 (RF strain) is added. Appropriate controls (infected and uninfected cells without compound, and non-infected cells with the compound) are included in the plate format. The cultures are incubated at 37° C. for six days during which time the cells proliferate, the virus reproduces and kills the cells. Cell viability is measured by the ability of cells to convert a colorless tetrazolium salt (XTT) to a highly colored soluble formazan. The intensity of the color is read in a spectrophotometer using an automated system. The wells are also examined microscopically to confirm the protective activity of the compounds."}, "[1]": {"details": "SRI experiments, read-out: Inhibitory Concentration"}, "[2]": {"details": "Human immunodeficiency virus 1, Lymphocyte"}, "[3]": {"details": "Human immunodeficiency virus 1, SRI experiments, read-out: Inhibitory Concentration"}}, "note": "Where two headings read alike, the source gives them in different places."}
{"smiles": "CC/C=C\\C/C=C\\C/C=C\\C/C=C\\C/C=C\\C/C=C\\CCC(=O)OC[C@@H]1CC[C@H](n2ccc(N)nc2=O)O1", "note": "[DHA-ddC 10]", "values": [{"measurement": "IC50", "setting": "HIV in human T4 cells; [1]", "result": 10, "unit": "nM"}, {"measurement": "Fold Increase in Potency", "setting": "HIV in human T4 cells", "result": 38, "unit": "fold"}]}
{"smiles": "Nc1ccn([C@H]2CC[C@@H](CO)O2)c(=O)n1", "note": "[ddC, 2′,3′-dideoxycytidine, reference compound]", "values": [{"measurement": "IC50", "setting": "HIV in human T4 cells; Human immunodeficiency virus 1, read-out: Inhibitory Concentration", "result": 300, "unit": "nM"}, {"measurement": "Fold Increase in Potency", "setting": "HIV in human T4 cells", "result": 1.0, "unit": "fold"}, {"measurement": "EC50", "setting": "HIV-1 (RF strain); [2]", "result": 114, "unit": "nM"}]}
{"smiles": "CC/C=C\\C/C=C\\C/C=C\\C/C=C\\C/C=C\\C/C=C\\CCC(=O)Nc1ccn([C@H]2CC[C@@H](CO)O2)c(=O)n1", "note": "[DHA-ddC 8]", "values": [{"measurement": "IC50", "setting": "HIV in human T4 cells; [3]", "result": 6.93, "unit": "nM"}, {"measurement": "Fold Increase in Potency", "setting": "HIV in human T4 cells", "result": 54.8, "unit": "fold"}, {"measurement": "Fold Increase in Potency over ddC", "setting": "HIV-1 (RF strain); mean EC50 for ddC (moles/L) divided by EC50 of the conjugate (moles/L)", "result": ">3807", "unit": "fold"}]}
{"smiles": "CC/C=C\\C/C=C\\C/C=C\\C/C=C\\C/C=C\\C/C=C\\CCC(=O)OC[C@H]1O[C@@H](n2cc(C)c(=O)[nH]c2=O)C[C@@H]1N=[N+]=[N-]", "note": "[DHA-AZT]", "values": [{"measurement": "IC50", "setting": "HIV in human T4 cells; [1]", "result": 60, "unit": "nM"}, {"measurement": "Fold Increase in Potency", "setting": "HIV in human T4 cells", "result": 1.7, "unit": "fold"}, {"measurement": "activity relative to AZT alone", "setting": "HIV in human T4 cells; same assays as the DHA-ddC conjugates", "result": "not increased"}, {"measurement": "EC50", "setting": "HIV-1 (RF strain)", "result": 26.2, "unit": "nM"}, {"measurement": "anti-HIV activity of the conjugate relative to that of the parent drug, AZT", "setting": "HIV-1 (RF strain); NCI studies", "result": "did not alter the anti-HIV activity"}]}
{"smiles": "Cc1cn([C@H]2CC(N=[N+]=[N-])[C@@H](CO)O2)c(=O)[nH]c1=O", "note": "(stereo partly drawn) [AZT, reference compound]", "values": [{"measurement": "IC50", "setting": "HIV in human T4 cells; [3]", "result": 100, "unit": "nM"}, {"measurement": "Fold Increase in Potency", "setting": "HIV in human T4 cells", "result": 1.0, "unit": "fold"}, {"measurement": "EC50", "setting": "HIV-1 (RF strain); [2]", "result": 17.7, "unit": "nM"}]}
{"smiles": "CC/C=C\\C/C=C\\C/C=C\\C/C=C\\C/C=C\\C/C=C\\CCC(=O)Nc1ccn([C@H]2CC[C@@H](COC(=O)CC/C=C\\C/C=C\\C/C=C\\C/C=C\\C/C=C\\C/C=C\\CC)O2)c(=O)n1", "note": "[DHA-ddC 9]", "values": [{"measurement": "IC50", "setting": "HIV in human T4 cells; [3]", "result": 30, "unit": "nM"}, {"measurement": "Fold Increase in Potency", "setting": "HIV in human T4 cells", "result": 12.7, "unit": "fold"}]}
